These results are taken from patent US9801888B2, “Pyrimidine compounds as mTOR and PI3K inhibitors” (DEVELOPMENT CENTER FOR BIOTECHNOLOGY, priority 2009, dated 2017).

Structures are written as SMILES.

Sequence of recombinant mTOR (P42345 1360-2549): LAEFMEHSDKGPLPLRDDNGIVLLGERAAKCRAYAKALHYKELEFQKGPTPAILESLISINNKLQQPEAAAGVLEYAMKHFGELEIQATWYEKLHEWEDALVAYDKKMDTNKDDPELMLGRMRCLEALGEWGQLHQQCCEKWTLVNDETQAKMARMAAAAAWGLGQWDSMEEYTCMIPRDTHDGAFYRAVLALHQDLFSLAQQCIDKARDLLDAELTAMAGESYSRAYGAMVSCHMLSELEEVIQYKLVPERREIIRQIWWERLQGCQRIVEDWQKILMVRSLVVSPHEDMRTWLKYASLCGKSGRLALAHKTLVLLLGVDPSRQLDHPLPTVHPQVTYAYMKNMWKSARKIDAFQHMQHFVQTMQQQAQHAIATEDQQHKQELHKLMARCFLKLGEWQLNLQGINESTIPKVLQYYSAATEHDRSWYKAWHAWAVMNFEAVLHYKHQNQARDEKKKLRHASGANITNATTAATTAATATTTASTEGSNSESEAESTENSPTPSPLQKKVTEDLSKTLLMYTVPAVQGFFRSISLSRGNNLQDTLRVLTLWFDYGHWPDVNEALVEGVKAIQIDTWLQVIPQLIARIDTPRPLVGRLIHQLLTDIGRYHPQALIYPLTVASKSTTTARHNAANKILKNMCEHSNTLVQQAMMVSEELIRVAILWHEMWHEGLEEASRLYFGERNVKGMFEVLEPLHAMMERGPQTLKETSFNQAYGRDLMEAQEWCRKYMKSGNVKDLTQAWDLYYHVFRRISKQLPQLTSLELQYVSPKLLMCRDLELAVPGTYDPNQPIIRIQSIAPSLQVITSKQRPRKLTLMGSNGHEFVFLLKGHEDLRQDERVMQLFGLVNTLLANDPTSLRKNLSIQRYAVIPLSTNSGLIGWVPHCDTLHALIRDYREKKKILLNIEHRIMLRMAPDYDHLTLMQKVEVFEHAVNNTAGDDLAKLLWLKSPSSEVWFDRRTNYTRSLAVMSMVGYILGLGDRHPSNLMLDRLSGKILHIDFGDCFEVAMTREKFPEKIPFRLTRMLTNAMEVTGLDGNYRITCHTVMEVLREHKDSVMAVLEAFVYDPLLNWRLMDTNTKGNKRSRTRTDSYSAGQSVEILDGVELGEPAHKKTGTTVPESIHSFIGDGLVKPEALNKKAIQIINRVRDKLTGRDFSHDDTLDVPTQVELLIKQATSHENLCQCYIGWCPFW

One test concerns the target recombinant mTOR (Homo sapiens (Human), UniProt P42345). As to the kind of experiment: mTOR kinase assay (33P incorporation into 4EBP1). It is filed as biochemical. As to conditions: compound at 10 μM; 10 μM ATP; versus DMSO control. The procedure: The activity of the compound against mTOR was examined by measuring the incorporation of ^33P from [γ-^33P]-ATP into 4EBP1. His-tagged, recombinant human 4EBP1 was expressed in E. coli, purified by nickel-nitrilotriacetic acid (Ni-NTA) resins, and stored at −80° C. Phosphorylation of 4EBP1 by mTOR was assayed in the presence or absence of the compound and performed in a final volume of 25 μl reaction buffer containing 300 ng 4EBP1, 50 ng recombinant mTOR (Invitrogen), 50 mM HEPES (pH 7.5), 1 mM EGTA, 0.01% Polysorbate 20, 10 mM MnCl2, 2.5 mM DTT, 10 μM ATP, and 0.5 μCi [γ-33P]-ATP (PerkinElmer) for 30 min at 30° C. The reactions were terminated by adding 3% phosphoric acid. The ^33P labeled 4EBP1 was transferred onto UniFilter-96 GF/B plate (PerkinElmer) and quantified by Top Count Microplate Scintillation Counter (PerkinElmer). For primary screening of kinase activity inhibition, each test compound was evaluated at […] in duplicate. […] The IC50 values of the compounds were determined after carrying out assays at eight serially diluted concentrations of each compound in duplicate. The results were analyzed using […] software (GraphPad Prism 5; GraphPad Software Inc.).
IC50 value is defined as the concentration of the test compound which achieves a half-maximal inhibition of the kinase activity.
On to `COc1c(-c2ccc(N)cc2)nc(-c2ccc(N)cc2)nc1N1CCOCC1` [MTR-0483], for which the “% Inhibition @ 10 μM” value came to 88%.

The test system of a further test is PI3K (p110β/p85α). As to the kind of experiment: PI3K HTRF enzyme assay, p110β/p85α. It is filed as biochemical. To be noted: compound at 500 nM; 100 μM ATP. As to the method: Recombinant PI3K (p110α/p85α) and PI3K (p110β/p85α) were from Millipore. […] Briefly, the compounds of interest dissolved in 100% DMSO were dispensed in all wells, following which the mixture of PIP2 and enzyme was added. PI3K (p110α/p85α) and PI3K (p110β/p85α) enzyme reactions were initiated in the presence of 10 μM and 100 μM ATP, respectively, and incubated for 30 min at room temperature. STOP solution prepared 2 hours prior to use was added to stop reactions, and mixed well. Detection solution prepared 2 hours prior to use was added, and incubated at room temperature for 17 hours in the dark. […] HTRF ration was calculated as follows: […]
For orientation: In TR-FRET formats the signal depends on donor and acceptor labels being close together.
On to `CSc1c(OCCN(C)C)nc(-c2cccc(O)c2)nc1N1CCOCC1` [MTR-0043, 3-[4-(2-Dimethylamino-ethoxy)-5-methylsulfanyl-6-morpholin-4-yl-pyrimidin-2-yl]-phenol], for which the “% inhibition @ 500 nM p110β” value is 44.80%.
Still for that read-out and setting: as for `CSc1c(Cl)nc(-c2ccc(N)nc2)nc1N1CCOCC1` [MTR-0133, 5-(4-Chloro-5-methylsulfanyl-6-morpholin-4-yl-pyrimidin-2-yl)-pyridin-2-ylamine], the figure is 4.50%.
Same read-out and setting: as for `CSc1c(Cl)nc(-c2ccc(NC(=O)Nc3ccc(F)cc3)cc2)nc1N1CCOCC1` [MTR-0135, 1-[4-(4-Chloro-5-methylsulfanyl-6-morpholin-4-yl-pyrimidin-2-yl)-phenyl]-3-(4-fluoro-phenyl)-urea], the figure is 14.20%; as for `CCOC(=O)c1nc(-c2ccc(NC(=O)Nc3cccc(F)c3)cc2)nc(N2CCOCC2)c1OCC` [MTR-0147, 5-Ethoxy-2-{4-[3-(3-fluoro-phenyl)-ureido]-phenyl}-6-morpholin-4-yl-pyrimidine-4-carboxylic acid ethyl ester], 1.20%.
As for `COc1cnc(-c2ccc(NC(=O)Nc3cccc(F)c3)cc2)nc1N1CCOCC1` [MTR-0164, 1-(3-Fluoro-phenyl)-3-[4-(5-methoxy-4-morpholin-4-yl-pyrimidin-2-yl)-phenyl]-urea], the “% inhibition @ 500 nM p110β” value was determined as 42.10%.
Same read-out and setting: as for `CCOc1c(CN2CCN(S(C)(=O)=O)CC2)nc(-c2ccc(NC(=O)Nc3ccccc3)cc2)nc1N1CCOCC1` [MTR-0169, 1-{4-[5-Ethoxy-4-(4-methanesulfonyl-piperazin-1-ylmethyl)-6-morpholin-4-yl-pyrimidin-2-yl]-phenyl}-3-phenyl-urea], the figure is 3.20%; as for `CSc1cnc(-c2ccc(NC(=O)Nc3ccc(F)cc3)cc2)nc1N1CCOCC1` [MTR-0178, 1-(4-Fluoro-phenyl)-3-[4-(5-methylsulfanyl-4-morpholin-4-yl-pyrimidin-2-yl)-phenyl]-urea], 8.20%.
The same measure, in the same setting: as for `CCOc1cnc(-c2ccc(NC(=O)Nc3ccc(N4CCOCC4=O)cc3)cc2)nc1-c1ccncc1` [MTR-0398, 1-[4-(5-Ethoxy-4-pyridin-4-yl-pyrimidin-2-yl)-phenyl]-3-[4-(3-oxo-morpholin-4-yl)-phenyl]-urea], the figure is 21.80%.
